# Patent US9115127B2 (AMGEN INC., priority 2010, dated 2015)
# pIC50: −log10 of the molar value. Where a name gives a salt, the structure may show the parent alone.
# Target: T1, wild-type human ALK (cytoplasmic domain, amino acids 1058-1620, N-terminal GST fusion) (Homo sapiens, UniProt Q9UM73)
# T1 construct: The cytoplasmic domain (amino acids 1058-1620) of wild-type human ALK; GST (N); made in house; host or cells: SF9 insect cells
# Assay: ALK Inhibition in Enzyme Assay (Lance TR-FRET kinase assay)
# Assay type: biochemical
# In short: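 Purified enzyme phosphorylated a biotinylated peptide substrate for 90 minutes at room temperature. Reactions were stopped with 20 mM EDTA in 50 mM Tris (pH 7.5), 100 mM NaCl, 0.05% BSA, 0.1% Tween-20. Phosphopeptide was detected by TR-FRET with SA-APC and Eu-W1024 anti-phosphotyrosine antibody PT66, excitation 320 nm.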
# T1 sequence (Q9UM73 1058-1620): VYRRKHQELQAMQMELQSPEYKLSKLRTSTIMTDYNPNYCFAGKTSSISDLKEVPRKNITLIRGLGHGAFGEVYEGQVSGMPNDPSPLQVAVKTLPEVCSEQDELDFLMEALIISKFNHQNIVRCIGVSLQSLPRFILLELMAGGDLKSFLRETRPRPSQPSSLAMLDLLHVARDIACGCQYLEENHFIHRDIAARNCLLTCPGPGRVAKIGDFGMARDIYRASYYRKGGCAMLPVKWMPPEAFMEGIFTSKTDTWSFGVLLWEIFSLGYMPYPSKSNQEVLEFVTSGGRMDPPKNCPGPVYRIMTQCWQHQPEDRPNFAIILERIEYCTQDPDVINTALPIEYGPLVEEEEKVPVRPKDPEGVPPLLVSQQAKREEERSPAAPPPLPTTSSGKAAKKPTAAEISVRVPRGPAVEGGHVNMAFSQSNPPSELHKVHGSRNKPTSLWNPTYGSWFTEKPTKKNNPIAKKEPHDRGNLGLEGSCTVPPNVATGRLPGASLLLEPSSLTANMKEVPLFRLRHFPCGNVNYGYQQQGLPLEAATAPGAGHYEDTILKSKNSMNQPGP
row,Structure (SMILES),pIC50
1,"CC(C)NC(=O)[C@H]1CC[C@@H](n2/c(=N/C(=O)c3ccc(F)cc3)[nH]c3ccc(CN4CCC(CC(=O)O)CC4)cc32)CC1 [Example 48, 2-(1-(((E)-2-(4-Fluorobenzoylimino)-3-(cis-4-(isopropylcarbamoyl)cyclohexyl)-2,3-dihydro-1H-benzo[d]imidazol-5-yl)methyl)piperidin-4-yl)acetic acid]",> 7.30
2,"COC(=O)[C@H]1CC[C@@H](n2c(NC(=O)c3ccccc3)nc3ccc(CN4CCOCC4)cc32)CC1 [Example 5, cis-Methyl 4-(2-benzamido-6-(morpholinomethyl)-1H-benzo[d]imidazol-1-yl)cyclohexanecarboxylate]",> 7.30
3,"CCOC(=O)[C@H]1CC[C@@H](n2/c(=N/C(=O)c3cccc(F)c3)[nH]c3cnc(OCCO)cc32)CC1 [Example 77, cis-Ethyl 4-((E)-2-(3-fluorobenzoylimino)-6-(2-hydroxyethoxy)-2,3-dihydro-1H-imidazo[4,5-c]pyridin-1-yl)cyclohexanecarboxylate]",> 7.30
4,"CC(C)NC(=O)[C@H]1CC[C@@H](n2/c(=N/C(=O)c3ccc(F)cc3)[nH]c3ccc(CN4CCN(S(C)(=O)=O)CC4)cc32)CC1 [Example 172, (E)-4-Fluoro-N-(1-(cis-4-(isopropylcarbamoyl)cyclohexyl)-6-((4-(methylsulfonyl)piperazin-1-yl)methyl)-1H-benzo[d]imidazol-2(3H)-ylidene)benzamide]",> 7.30
5,"CC(C)NC(=O)[C@H]1CC[C@@H](n2/c(=N/C(=O)c3ccc(F)cc3)[nH]c3ccc(OCCN4CCCCC4)cc32)CC1 [Example 155, (E)-4-Fluoro-N-(1-(cis-4-(isopropylcarbamoyl)cyclohexyl)-6-(2-(piperidin-1-yl)ethoxy)-1H-benzo[d]imidazol-2(3H)-ylidene)benzamide]",> 7.30
6,"O=C(/N=c1\[nH]c2ccc(CN3CCOCC3)cc2n1[C@H]1CC[C@@H](C(=O)NO)CC1)c1ccc(F)cc1 [Example 207, (E)-4-Fluoro-N-(1-(cis-4-(hydroxycarbamoyl)cyclohexyl)-6-(morpholinomethyl)-1H-benzo[d]imidazol-2(3H)-ylidene)benzamide]",7.00 to 7.30
7,"CC(C)N(C)C(=O)[C@H]1CC[C@@H](n2/c(=N/C(=O)c3ccc(F)cc3)[nH]c3ccc(CN4CCCCC4)cc32)CC1 [Example 46, (E)-4-Fluoro-N-(1-(cis-4-(isopropyl(methyl)carbamoyl)cyclohexyl)-6-(piperidin-1-ylmethyl)-1H-benzo[d]imidazol-2(3H)-ylidene)benzamide]",> 7.30
8,"Cc1n[nH]c([C@H]2CC[C@@H](n3/c(=N/C(=O)c4cccc(F)c4)[nH]c4ccc(CO)cc43)CC2)n1 [Example 73, (E)-3-Fluoro-N-(6-(hydroxymethyl)-1-(cis-4-(3-methyl-1H-1,2,4-triazol-5-yl)cyclohexyl)-1H-benzo[d]imidazol-2(3H)-ylidene)benzamide]",6.00 to 7.00
9,"CC(C)NC(=O)[C@H]1CC[C@@H](n2/c(=N/C(=O)c3cc(F)cc(Cl)c3)[nH]c3cnc(OCCN4CCCCC4)cc32)CC1 [Example 115, (E)-3-Chloro-5-fluoro-N-(1-(cis-4-(isopropylcarbamoyl)cyclohexyl)-6-(2-(piperidin-1-yl)ethoxy)-1H-imidazo[4,5-c]pyridin-2 (3H)-ylidene)benzamide]",> 7.30
10,"CC(C)NC(=O)[C@H]1CC[C@@H](n2/c(=N/C(=O)c3ccc(F)cc3)[nH]c3cnc(OC4CCN(C)CC4)cc32)CC1 [Example 169, (E)-4-Fluoro-N-(1-(cis-4-(isopropylcarbamoyl)cyclohexyl)-6-(1-methylpiperidin-4-yloxy)-1H-imidazo[4,5-c]pyridin-2(3H)-ylidene)benzamide]",> 7.30
11,"CNC(=O)[C@H]1CC[C@@H](n2/c(=N/C(=O)c3ccc(F)cc3)[nH]c3ccc(CN4CCCCC4)cc32)CC1 [Example 15, (E)-N-(1-(cis-4-(Methylcarbamoyl)cyclohexyl)-6-(piperidin-1-ylmethyl)-1H-benzo[d]imidazol-2(3H)-ylidene)-4-fluorobenzamide]",> 7.30
12,"C[C@@H]1CN(C(=O)OC(C)(C)C)CCN1C(=O)[C@H]1CC[C@@H](n2/c(=N/C(=O)c3ccc(C#N)cc3)[nH]c3cnc(OCCN4CCCCC4)cc32)CC1 [Example 57, (R)-tert-Butyl 4-(cis-4-((E)-2-(4-cyanobenzoylimino)-6-(2-(piperidin-1-yl)ethoxy)-2,3-dihydro-1H-imidazo[4,5-c]pyridin-1-yl)cyclohexanecarbonyl)-3-methylpiperazine-1-carboxylate]",> 7.30
13,"CC(C)NC(=O)[C@H]1CC[C@@H](n2/c(=N/C(=O)c3ccc(F)cc3)[nH]c3cnc(N4CCS(=O)(=O)CC4)cc32)CC1 [Example 223, N-((2E)-6-(1,1-Dioxido-4-thiomorpholinyl)-1-(cis-4-((1-methylethyl)carbamoyl)cyclohexyl)-1,3-dihydro-2H-imidazo[4,5-c]pyridin-2-ylidene)-4-fluorobenzamide]",> 7.30

# The remaining lines, values ahead:
row,pIC50,Structure (SMILES)
1,> 7.30,"CC(C)NC(=O)[C@H]1CC[C@@H](n2/c(=N/C(=O)c3ccc(F)cc3)[nH]c3cnc(OCCN4CCOCC4)cc32)CC1 [Example 51, (E)-4-Fluoro-N-(1-(cis-4-(isopropylcarbamoyl)cyclohexyl)-6-(2-morpholinoethoxy)-1H-imidazo[4,5-c]pyridin-2(3H)-ylidene)benzamide]"
2,> 7.30,"CC(C)NC(=O)[C@H]1CC[C@@H](n2/c(=N/C(=O)c3ccc(F)cc3)[nH]c3cc(F)c(OCCN4CCOCC4)cc32)CC1 [Example 166, (E)-4-Fluoro-N-(5-fluoro-1-(cis-4-(isopropylcarbamoyl)cyclohexyl)-6-(2-morpholinoethoxy)-1H-benzo[d]imidazol-2(3H)-ylidene)benzamide]"
3,5.30 to 6.00,"CC(C)NC(=O)[C@H]1CC[C@@H](n2/c(=N/C(=O)c3ccc4ccn(C)c4c3)[nH]c3cnc(OCCN4CCCCC4)cc32)CC1 [Example 109, (E)-N-(1-(cis-4-(Isopropylcarbamoyl)cyclohexyl)-6-(2-(piperidin-1-yl)ethoxy)-1H-imidazo[4,5-c]pyridin-2(3H)-ylidene)-1-methyl-1H-indole-6-carboxamide]"
4,7.00 to 7.30,"CC(C)NC(=O)[C@H]1CC[C@@H](n2/c(=N/C(=O)c3cccc(OC(F)(F)F)c3)[nH]c3cnc(OCCN4CCCCC4)cc32)CC1 [Example 121, (E)-N-(1-(cis-4-(Isopropylcarbamoyl)cyclohexyl)-6-(2-(piperidin-1-yl)ethoxy)-1H-imidazo[4,5-c]pyridin-2(3H)-ylidene)-3-(trifluoromethoxy)benzamide]"
5,> 7.30,"CC(C)NC(=O)[C@H]1CC[C@@H](n2/c(=N/C(=O)c3ccc(F)cc3)[nH]c3ccc(CN4CCC(C(O)C(F)(F)F)CC4)cc32)CC1 (stereo partly drawn) [Example 186, (E)-4-Fluoro-N-(1-(cis-4-(isopropylcarbamoyl)-cyclohexyl)-6-((4-(2,2,2-trifluoro-1-hydroxyethyl)piperidin-1-yl)methyl)-1H-benzo[d]imidazol-2(3H)-ylidene)benzamide]"
6,7.00 to 7.30,"COc1cc(F)cc(C(=O)/N=c2\[nH]c3cnc(OCCN4CCCCC4)cc3n2[C@H]2CC[C@@H](C(=O)NC(C)C)CC2)c1 [Example 117, (E)-3-Fluoro-N-(1-(cis-4-(isopropylcarbamoyl)cyclohexyl)-6-(2-(piperidin-1-yl)ethoxy)-1H-imidazo[4,5-c]pyridin-2(3H)-ylidene)-5-methoxybenzamide]"
7,> 7.30,"COc1ccc(C(=O)/N=c2\[nH]c3ccc(CN4CCC(C(C)(C)O)CC4)cc3n2[C@H]2CC[C@@H](C(=O)NC(C)C)CC2)cc1 [Example 151, (E)-N-(6-((4-(2-Hydroxypropan-2-yl)piperidin-1-yl)methyl)-1-(cis-4-(isopropylcarbamoyl)cyclohexyl)-1H-benzo[d]imidazol-2(3H)-ylidene)-4-methoxybenzamide]"
8,> 7.30,"COC(=O)[C@H]1CC[C@@H](n2c(NC(=O)c3ccccc3)nc3ccc(CO)cc32)CC1 [Example 4, cis-Methyl 4-(2-benzamido-6-(hydroxymethyl)-1H-benzo[d]imidazol-1-yl)cyclohexanecarboxylate]"
9,> 7.30,"CC(C)NC(=O)[C@H]1CC[C@@H](n2/c(=N/C(=O)c3ccc(F)cc3)[nH]c3ccc(S(C)(=O)=O)cc32)CC1 [Example 238, (E)-4-Fluoro-N-(1-(cis-4-(isopropylcarbamoyl)cyclohexyl)-6-(methylsulfonyl)-1H-benzo[d]imidazol-2(3H)-ylidene)benzamide]"
10,6.00 to 7.00,"O=C(Nc1nc2ccc(CN3CCCCC3)cc2n1[C@H]1CC[C@@H](C(=O)O)CC1)c1ccc(F)cc1 [Example 10, cis-4-(2-(4-Fluorobenzamido)-6-(piperidin-1-ylmethyl)-1H-benzo[d]imidazol-1-yl)cyclohexanecarboxylic acid hydrochloride]"
11,5.30 to 6.00,"O=C(/N=c1\[nH]c2ccc(CN3CCOCC3)cc2n1[C@H]1CC[C@@H](C(=O)O)CC1)c1ccc(F)cc1 [Example 42, cis-4-((E)-2-(4-Fluorobenzoylimino)-6-(morpholinomethyl)-2,3-dihydro-1H-benzo[d]imidazol-1-yl)cyclohexanecarboxylic acid]"
12,> 7.30,"COC(=O)[C@H]1CC[C@@H](n2c(NC(=O)c3ccc(F)cc3)nc3ccc(CN4CCCCC4)cc32)CC1 [Example 3, cis-Methyl 4-(2-(4-fluorobenzoylimino)-6-(piperidin-1-ylmethyl)-2,3-dihydro-1H-benzo[d]imidazol-1-yl)cyclohexanecarboxylate]"
13,> 7.30,"CC(C)NC(=O)[C@H]1CC[C@@H](n2/c(=N/C(=O)c3ccc(F)cc3)[nH]c3ccc(CN4CCC[C@@H]4C(=O)O)cc32)CC1 [Example 53, (R)-1-(((E)-2-(4-Fluorobenzoylimino)-3-(cis-4-(isopropylcarbamoyl)cyclohexyl)-2,3-dihydro-1H-benzo[d]imidazol-5-yl)methyl)pyrrolidine-2-carboxylic acid hydrochloride]"
